Patent US4833268A, “Threo-adrenalinecarboxylic acid, and the production and uses thereof” (Zaidan Hojin Biseibutsu Kagaku Kenkyu Kai, priority 1982, dated 1989)
Read-outs that look alike come from different tables or passages of the source.

Tests used:
[1] = cited from earlier work; for accumulation of noradrenaline in brain: after intraperitoneal administration, rats; for decarboxylation in vivo, leading to accumulation of noradrenaline in heart: intraperitoneally administered in rats; for levels of noradrenaline in heart and brain: intraperitoneal administration of high dosages
[2] = test system: brain enzymes (homogenate of the whole brains of mice); experiment: Test 7: in vitro decarboxylation by supernatant of mouse whole brain homogenate
Procedure: (§1) The whole brains of mice of ddY-strain were homogenized and the resulting brain homogenate was diluted with the same volume of a buffere solution (comprising 50 mM Tris-HCl (pH 8.6, 1.5 mM EDTA.2Na); 0.5 mM Pridoxal-5-Phosphate; 1 mM Nialamide; and 0.85 mM L-ascorbic acid), and the mixture was centrifuged at 10,000 g to give a supernatant liquid containing the brain enzymes. To this supernatant liquid (500 μl) was added a solution containing 4.5 mM of a substrate selected from L-threo-adrenalinecarboxylic acid, L-threo-DOPS and L-DOPA. The mixture obtained (pH ca. 8, 1.0 ml) was incubated for 30 minutes at 37° C., followed by quantitative determination of adrenaline, noradrenaline or dopamine formed as the reaction product catecholamine.
(§2) The determination of the catecholamine as produced (adrenaline, noradrenaline or […]) was made according to the following procedure: Thus, the incubated mixture was admixed with aqueous 6% perchloric acid (PCA) for stopping the enzymatic reactions, and the reaction solution so obtained was de-salted by adding thereto potassium carbonate to precipitate the potassium perchlorate, and removing the precipitate by filtration. The de-salted reaction solution was passed through a column of Amberlite CG-50 as developed with 250 μl of 2N-PCA solution and then with 250μl of water. The eluate was analyzed by a high performance liquid chromatography under the following conditions:
(§3) Mobile Phase: 0.1M Citrate buffer (pH 4.3)-methanol(9:1) containing 0.0025M 1-octane sulfonic acid sodium salt
(§4) Column temperature: 40° C.
(§5) Applied voltage: 600 mV vs. Ag/AgCl.
(§6) The yield of the catecholamine as formed was calculated in term of percentages based on the quantity of the substrate charged, and this calculated yield denotes the rate of decarboxylation of the substrate compound (in %).

[3] = as above; conditions: mouse, brain homogenate supernatant, pH 8
Procedure: as §1, §2, §3, §4, §5, §6

[4] = type: in vivo, mice; conditions: 500 mg/kg i.p., whole brain 90 minutes after administration
[5] = test system: harmaline-induced tremor; experiment: Test 1: inhibitory activity against harmaline-induced tremor; type: in vivo, ddY-strain mice; conditions: for Reduction (%) in the duration of tremor action: 30 minutes before harmaline 10 mg/kg i.p., relative to harmaline-only control
Procedure: This test was made according to one usual method for screening antiparkinsonian drugs which determines inhibitory activity against harmaline-induced tremor.
ddY-strain Mice (male, body weight 20-30 g, five in each group) were used as test animal for respective tests. The new compound, DL-threo-adrenalinecarboxylic acid according to this invention, was intraperitoneally administered to each of the mice at a dosage of 400 mg/kg or […], and after the lapse of 30 minutes harmaline was also intrapenitoneally injected to the same mice at a dosage of 10 mg/kg. Then, the duration of tremor action as induced in the mice under test was observed and recorded. The rate (percentage) of reduction in the duration of tremor action in relation to the control group of mice to which only harmaline was administered in the same dosage was calculated by the equation given below. By way of comparison DL-threo-3-(3,4-dihydroxyphenyl)serine (i.e. DL-threo-DOPS) in a dosage of 400 mg/kg was tested in the same manner as above. [formula]

[6] = test system: reserpine-induced decrease in the body temperature and muscular rigidity; experiment: Test 3: reserpine-induced decrease in body temperature and muscular rigidity (reserpine 2.5 mg/kg s.c.); type: in vivo, ddY-strain mice; conditions: for Body Temperature (°C.) (Average ± Standard deviation) 24 Hours after administration of reserpine: 800 mg/kg group, 24 hours after reserpine 2.5 mg/kg s.c., before test compound; for Body Temperature (°C.) (Average ± Standard deviation) 1 Hour after administration of adrenaline carboxylic acid / Muscular Rigidity: number of mice exhibiting significant improvement in the muscular rigidity per the total number of mice in each group: given 24 hours after reserpine 2.5 mg/kg s.c.; for Body Temperature (°C.) (Average ± Standard deviation) Before administration of reserpine: baseline of the 800 mg/kg group, before reserpine and before test compound
Procedure: After this, 800 mg/kg of L-threo-adrenalinecarboxylic acid or 800 mg/kg of D-threo-adrenalinecarboxylic acid or DL-threo-adrenalinecarboxylic acid synthetized according to this invention was intraperitoneally administered to the mice having received reserpine. One hour after the administration of the threo-adrenalinecarboxylic acid, the body temperature of the treated mice was determined. Estimation was also made about whether the muscular rigidity as induced by reserpine was improved by the administration of the threo-adrenalinecarboxylic acid of this invention.

[7] = Test 6: brain concentration of 14C-labelled compound after intravenous administration; type: in vivo, C57 Black-strain mice; conditions: administered intraperitoneally or intravenously in mice
Procedure: After a last injection of heparin, the treated mice were anesthetized with ethylether and the breast opened surgically. The blood was withdrawn from the heart and the lower portion of the heart ventricle was cut off. A catheter was inserted at the ventricle into the artery and fixed by means of binding threads. The two veins at the neck were opened surgically, and immediately physiological saline was injected through said catheter so that the remaining blood was entirely withdrawn at the opened veins together with the washing saline. The whole brain was removed from the sacrificed mouse, and the whole brain was dried in air at ambient temperature overnight.

[8] = test system: reserpine-induced decrease in the body temperature; experiment: Test 2: inhibition of reserpine-induced decrease in body temperature (reserpine 4 mg/kg i.p.); type: in vivo, ddY-strain mice; conditions: for Body Temperature (°C.) 1 Hour after / Body Temperature (°C.) 2 Hours after: given 24 hours after reserpine 4 mg/kg i.p.
Procedure: ddY-strain Mice (male, body weight 20-30 g, five in each group) were used as the test animal for respective tests. Reserpine was intraperitoneally administered to each mouse at a dose of 4 mg/kg. 24 Hours later, the decreased body temperature of the mice was observed and recorded. After this, 1500 mg/kg or 2000 mg/kg of DL-threo-adrenalinecarboxylic acid was intraperitoneally administered to each of the mice having received reserpine. At the end of 1 hour and at the end of 2 hours after the administration of the DL-threo-adrenalinecarboxylic acid, the body temperature of these treated mice was determined and shown in Table 3 below.

[9] = Test 4: acute toxicity; conditions: i.p., 0.5 ml per mouse of 20 mg/ml suspension in 0.5% CMC
Procedure: This test is carried out to examine acute toxicity of the DL-threo-adrenalinecarboxylic acid.
To DDB4-strain mice (male, body weight 23-28 g, six in each group) was intraperitoneally administered at a dosage of 0.5 ml per mouse a suspension containing 20 mg/ml of DL-threo-adrenalinecarboxylic acid dispersed in an aqueous solution of 0.5% carboxymethylcellulose (CMC). The mice were then raised under normal conditions for 7 days after the administration of the compound. During these 7 days, the mice were observed and estimated with regard to their body weight, the quantity of feedstock and the quantity of water which were taken by the mice.

Q: For `N[C@H](C(=O)O)[C@H](O)c1ccc(O)c(O)c1` [L-threo-DOPS, L-threo-3-(3,4-dihydroxyphenyl)serine], which “accumulation of natural (l)-noradrenaline in the brain” value ([1]; after direct injection into a cerebral ventricle) is on record?
A: marked

Q: What about the “accumulation of noradrenaline in brain” value [1] of the same compound?
A: negligible

Q: And the “decarboxylation in vivo, leading to accumulation of noradrenaline in heart” value [1]?
A: readily decarboxylated in vivo

Q: What about the “decarboxylation in vitro by homogenate of whole brains of mice, in words” value [2] of the same compound?
A: can be decarboxylated into noradrenaline

Q: And the metabolised at 0.5 h, 4500 µM [3]?
A: > 0.52%

Q: With `N[C@@H](C(=O)O)[C@@H](O)c1ccc(O)c(O)c1` [D-threo-DOPS] as the compound, how does the “levels of noradrenaline in heart and brain” value [1] read?
A: slight increase

Q: With `N[C@@H](C(=O)O)[C@H](O)c1ccc(O)c(O)c1` [D-erythro-DOPS] as the compound, how does the “levels of noradrenaline in heart and brain” value [1] read?
A: slight increase

Q: With `N[C@H](C(=O)O)[C@H](O)c1ccc(O)c(O)c1` (relative stereo) [DL-threo-DOPS, DL-threo-3-(3,4-dihydroxyphenyl)serine, reference compound] as the compound, how does the “Quantity (as average) of the administered compound present in brain” value [4] read?
A: Not detectable

Q: And the “Reduction (%) in the duration of tremor action” value (“Reduction (%) in the duration” below) ([5]; 400 mg/kg i.p.)?
A: 26%

Q: For `CN[C@@H](C(=O)O)[C@@H](O)c1ccc(O)c(O)c1` [D-threo-adrenalinecarboxylic acid], which “Body Temperature (°C.) (Average ± Standard deviation) 24 Hours after administration of reserpine” value [6] is on record?
A: 36.0 ± 0.5 °C

Q: What about the “Body Temperature (°C.) (Average ± Standard deviation) 1 Hour after administration of adrenaline carboxylic acid” value ([6]; 800 mg/kg i.p.) of the same compound?
A: 35.9 ± 0.5 °C

Q: What about the “Muscular Rigidity: number of mice exhibiting significant improvement in the muscular rigidity per the total number of mice in each group” value ([6]; 800 mg/kg i.p.) of the same compound?
A: 0/5

Q: What about the “Body Temperature (°C.) (Average ± Standard deviation) Before administration of reserpine” value [6] of the same compound?
A: 38.9 ± 0.2 °C

Q: Which “accumulation of noradrenaline in brain” value [1] does the source give for `N[C@H](C(=O)O)[C@@H](O)c1ccc(O)c(O)c1` [L-erythro-DOPS] here?
A: significant

Q: What about the “decarboxylation in vivo, leading to accumulation of noradrenaline in heart” value [1] of the same compound?
A: readily decarboxylated in vivo

Q: For `N[C@@H](Cc1ccc(O)c(O)c1)C(=O)O` [L-DOPA, L-3,4-dihydroxyphenylalanine], which metabolised at 0.5 h, 4500 µM [3] is on record?
A: > 11.7%

Q: For `CN[C@H](C(=O)O)[C@H](O)c1ccc(O)c(O)c1` [L-threo-adrenalinecarboxylic acid, L-threo-3-(3,4-dihydroxyphenyl)-N-methylserine], which “penetration through the blood-brain barrier, in words” value [7] is on record?
A: can surprisingly penetrate and transfer through the blood-brain barrier into the brain

Q: What about the “Body Temperature (°C.) (Average ± Standard deviation) 24 Hours after administration of reserpine” value [6] of the same compound?
A: 35.4 ± 0.4 °C

Q: What about the “effect on reserpine-induced decrease in body temperature, in words” value ([6]; 800 mg/kg i.p.) of the same compound?
A: remarkably inhibits the reserpine-induced decrease in the body temperature

Q: And the “effect on reserpine-induced muscular rigidity, in words” value ([6]; 800 mg/kg i.p.)?
A: remarkably improves (eliminates or weakens) the muscular rigidity

Q: And the “Body Temperature (°C.) (Average ± Standard deviation) 1 Hour after administration of adrenaline carboxylic acid” value ([6]; 800 mg/kg i.p.)?
A: 38.7 ± 0.5 °C

Q: And the “Muscular Rigidity: number of mice exhibiting significant improvement in the muscular rigidity per the total number of mice in each group” value ([6]; 800 mg/kg i.p.)?
A: 5/5

Q: What about the “Body Temperature (°C.) (Average ± Standard deviation) Before administration of reserpine” value [6] of the same compound?
A: 39.0 ± 0.2 °C

Q: What about the “decarboxylation in vitro by homogenate of whole brains of mice, in words” value ([2]; in vitro, mouse whole brain homogenate) of the same compound?
A: can hardly be decarboxylated into adrenaline

Q: And the metabolised at 0.5 h, 4500 µM [3]?
A: < 0.00031%

Q: For `CN[C@H](C(=O)O)[C@H](O)c1ccc(O)c(O)c1` (relative stereo) [DL-threo-adrenalinecarboxylic acid, DL-threo-3-(3,4-dihydroxyphenyl)-N-methylserine], which “Quantity (as average) of the administered compound present in brain” value [4] is on record?
A: 2.0 n mole/g

Q: And the “Quantity (as average) of adrenaline in brain” value ([4]; not administered: 0.37 n mole/g)?
A: 0.44 n mole/g

Q: And the “Body Temperature (°C.) 1 Hour after” value ([8]; 1500 mg/kg i.p.)?
A: 32.9 °C

Q: And the “Body Temperature (°C.) 2 Hours after” value ([8]; 1500 mg/kg i.p.)?
A: 32.6 °C

Q: What about the “Body Temperature (°C.) 1 Hour after” value ([8]; 2000 mg/kg i.p.) of the same compound?
A: 34.0 °C

Q: And the “Body Temperature (°C.) 2 Hours after” value ([8]; 2000 mg/kg i.p.)?
A: 32.5 °C

Q: And the “effect on reserpine-induced decrease in body temperature, in words” value ([8]; 1500 or 2000 mg/kg i.p., compared to control mice receiving reserpine only)?
A: inhibited the reserpine-induced decrease in the body temperature

Q: And the “Body Temperature (°C.) (Average ± Standard deviation) 24 Hours after administration of reserpine” value [6]?
A: 34.9 ± 0.7 °C

Q: What about the “Body Temperature (°C.) (Average ± Standard deviation) 1 Hour after administration of adrenaline carboxylic acid” value ([6]; 800 mg/kg i.p.) of the same compound?
A: 36.9 ± 0.3 °C

Q: And the “Muscular Rigidity: number of mice exhibiting significant improvement in the muscular rigidity per the total number of mice in each group” value ([6]; 800 mg/kg i.p.)?
A: 0/5

Q: And the “Body Temperature (°C.) (Average ± Standard deviation) Before administration of reserpine” value [6]?
A: 39.1 ± 0.2 °C

Q: And the “acute toxicity: body weight, quantity of feedstock and quantity of water taken, treated vs control group” value ([9]; 7 days observation)?
A: No diference could be detected

Q: What about the “acute toxicity: anatomical examination, organ weights, bio-chemical tests of blood, tissue-pathological tests, treated vs control group” value ([9]; after 7 days) of the same compound?
A: no significant difference existed

Q: And the “Reduction (%) in the duration” value ([5]; 400 mg/kg i.p.)?
A: 34%

Q: And the “Reduction (%) in the duration” value ([5]; 600 mg/kg i.p.)?
A: 37%

Q: What about the “reduction in duration of tremor action, comparison in words” value ([5]; i.p., harmaline 10 mg/kg) of the same compound?
A: significantly superior to DL-threo-DOPS
